Data set [1] has as its system ERK1,2 phosphorylation. Nature of the data set: ERK1/2 phosphorylation ELISA, OVCAR-5 cells. The format is cell-based, human. As to conditions: for Vmax ± SE, pERK 1/2 inhibition: Michaelis Menten model; for IC50: Homo sapiens, read-out: IC50, pERK 1/2 inhibition.
For data set [2], the system named is pAKT. The data set is described as follows: Western immunoblotting densitometry, pAKT, OVCAR-3 cells. The format is cell-based, human. Particulars: 25 μM; for ratio [pAKT]/[GAPDH] band intensity: OVCAR-3 cells; for ratio [pAKT]/[GAPDH] band intensity, single blot (panel A): panel A upper set, cell line not given, control ratio 1.21. On the technique in general: Immunoblotting shows a protein as a band on a membrane.

A short description of data set [3]: in vivo. As to conditions: both, CB17 SCID, mouse, ip.

Experimental findings from PMC7281072 (Cancers, 2020) are described below.

SMILES strings stand for the structures. Read-outs that look alike come from different tables or passages of the source.

As to `C[C@]12CC[C@H]3[C@@H](CCC4=CC(=O)NCC[C@@]43C)[C@@H]1CC[C@@H]2OC(=O)CCOc1ccc(N(CCCl)CCCl)cc1` [ENGA-L06E, 5a,7a-dimethyl-2-oxo-2,3,4,5,5a,5b,6,7,7a,8,9,10,10a,10b,11,12-hexa decahydrocyclopenta [5, 6] naphtho [1,2-d] azepin-8-yl 3-(4-(bis(2-chloroethyl)amino)phenoxy) propanoate], the figures for the “Vmax ± SE, pERK 1/2 inhibition” value in data set [1] (15 min), in data set [1] (30 min) and in data set [1] (60 min) were 68.95 ± 3.21, 74.99 ± 2.47 and 80.67 ± 1.52, respectively. Besides, the IC50 in data set [1] (0.25 h, 15 min) amounted to 20 µM; in data set [1] (0.5 h, 30 min), 14.1 µM; in data set [1] (1 h, 60 min), 9.18 µM. Besides, the “ratio [pAKT]/[GAPDH] band intensity” value amounted to 0.92 in data set [2] (30min, control ratio 1.23); 0.62 in data set [2] (1h, control ratio 1.14); 0.61 in data set [2] (3h, control ratio 1.27); 0.54 in data set [2] (6h, control ratio 1.26); 0.50 in data set [2] (12h, control ratio 1.18); 0.59 in data set [2] (24h, control ratio 1.29). The “ratio [pAKT]/[GAPDH] band intensity, single blot (panel A)” value is on record as 0.52 in data set [2] (1h) and 0.22 in data set [2] (3h).

As for `C[C@]12CC[C@@H]3c4ccc(OC(=O)CCOc5ccc(N(CCCl)CCCl)cc5)cc4CC[C@H]3[C@@H]1CCC(=O)N2` [ENGA-L08E, 12a-methyl-2-oxo-1,2,3,4,4a,4b,5,6,10b,11,12,12a-dodecahydronaphtho[2,1-f]quinolin-8-yl 3-(4-(bis (2-chloroethyl)amino)phenoxy) propanoate], the median lethal dose (LD50) in data set [3] worked out at 95 mg/kg. Further, the “Vmax ± SE, pERK 1/2 inhibition” value in data set [1] (15 min) turned out to be 63.85 ± 3.62; in data set [1] (30 min), 67.94 ± 4.54; in data set [1] (60 min), 69.19 ± 2.95. In addition, the IC50 in data set [1] (0.25 h, 15 min) is 32.4 µM; in data set [1] (0.5 h, 30 min) it was 17 µM; in data set [1] (1 h, 60 min), 10.9 µM. For the same compound, the “ratio [pAKT]/[GAPDH] band intensity” value in data set [2] (30min, control ratio 1.23) is reported as 0.93; in data set [2] (1h, control ratio 1.14) it was 0.60; in data set [2] (3h, control ratio 1.27), 0.52; in data set [2] (6h, control ratio 1.26) it was 0.47; in data set [2] (12h, control ratio 1.18), 0.48; in data set [2] (24h, control ratio 1.29), 0.54. Further, the “ratio [pAKT]/[GAPDH] band intensity, single blot (panel A)” value in data set [2] (1h) is 0.40; in data set [2] (3h), 0.34.

As usually defined, the LD50 is the dose expected to kill half of the subjects tested. A low value points to greater toxicity.
